Key:
Neuroma blast cells N2a = experiment: Cytotoxicity test (MTT method); assay type: cell-based; conditions: 24 hours after drug addition
Procedure: A group of Neuroma blast cells N2a that are cultured in a blank medium without hydrophobic drugs (i.e., the curcumin analog M1) defines a negative control group, and a rate of cell viability of the Neuroma blast cells N2a in the negative control group is calculated as 100%. FIG. 8 illustrates the results.

[1] = Dissolution/dispersion in water and organic solvents, Tyndall effect; assay type: physicochemical

COc1ccccc1/C=C/C(=O)/C=C/c1ccccc1OC [curcumin analog M1]
cytotoxicity (cell survival rate) (Neuroma blast cells N2a): dose-dependent cytotoxicity | solubility in tetrahydrofuran ([1]; tetrahydrofuran): soluble in tetrahydrofuran | dissolution / dispersion in water ([1]; water): difficultly dissolved in water

Reference: patent publication US20220000804A1, “INTRANASAL NANO INDUCER FOR PREVENTING AND TREATING NEURODEGENERATIVE DISEASES AND METHOD THEREOF” (Nasal-Phyto (SZ) Pharmaceutical Technology Co., Ltd., priority 2019, published 2022)
